For one assay, the system named is SH-SY5Y cells. The experiment in a line: Mitochondrial ROS (Mito-SOX) in SH-SY5Y cells. In kind it is cell-based. Here is the method:
(§1) Cells cultured on coverslips or 24-well plates were washed with DPBS and then incubated with 5 µM Mito-SOX™ Red (Invitrogen, M36008), a mitochondrial superoxide indicator, for 10 min at 37 °C. For cells cultured on coverslips, the images were visualized by microscope, and quantification of images was then carried out using NIH ImageJ software. At least 100 cells per group were counted in the analysis.
The bimolecular fluorescence was examined 24-hour after transfection (n = 3, one-way ANOVA with Tukey’s post-hoc test, scale bar = 30 μm). (D) Quantification of the concentration (ng/ml) of extracellular αSyn monomer and oligomer, and intracellular αSyn oligomer in Tet-inducible SH-SY5Y cells that were pre-treated with TAT or CS2 peptide 30-minute before adding doxycycline (Dox) to induce αSyn expression. The concentration of αSyn species was determined by ELISA (n = 4, one-way ANOVA with Tukey’s post-hoc test; data are mean ± SEM). (E) Representative images of Mito-SOX staining in SH-SY5Y cells that were pre-treated with TAT or CS2 peptide and transfected with split Venus-αSyn vectors. Mitochondrial ROS production was determined by Mito-SOX staining after 24-hour transfection (n = 4, two-tailed Student’s t test, scale bar = 30 μm).

In assay [1] the test system is αSyn-PFF-inoculated primary cortical neurons. Description: Mitochondrial function (Mito-SOX, TMRM, ATP) in αSyn-PFF-inoculated primary cortical neurons. In kind it is cell-based, mouse. As to conditions: 1 µM daily. Here is the method: Primary cortical neurons were isolated from normal E18 mouse cortex (sex undetermined) and cultured using complete culturing kit (cat#: KTC57ECX, TransnetYX Tissue). Briefly, 100,000 cells were seeded on poly-D-lysine coated glass coverslips (PDL15mm, TransnetYX Tissue) and cultured in NbActiv1 medium (NB1, TransnetYX Tissue). Neurons were treated with sonicated human α-Syn-PFF (SPR-322, StressMarq Biosciences) starting on post-seeding Day 5 till Day 14. Starting from post-seeding Day 9, TAT or CS2 peptide was added daily at 1µM. Neurons were fixed on Day 14 and subjected for experiments.
as §1
Cells cultured on coverslips or 24-well plates were washed with DPBS and then incubated with 0.25 µM Tetramethylrhodamine, methyl ester (TMRM) (Invitrogen, T668), for 20 min at 37 °C. For cells cultured on coverslips, the images were visualized by microscope, and quantification of images was then carried out using NIH Fiji ImageJ software. At least 100 cells per group were counted in the analysis.
Cells were seeded in 24-well plates, followed by the indicated treatment. The ATP level in each well was determined using the ATP assay kit according to the manufacturer’s procedures (Cayman Chemical, 700410).

The test system of assay [2] is A53T-αSyn PD patient iPSC-derived DA neurons. Description: Immunofluorescence / fractionation western blot in A53T-αSyn iPSC-derived (DA) neurons. Format: cell-based, human. The settings on record: 1 µM, five days. From the text: PD iPS cells lines (αSyn A53T, NN0004337, donor) and its isogenic corrected control line (NN0004344) were obtained from RUCDR Infinite Biologics. The iPS cells were differentiated into dopaminergic neuron-enriched neuronal culture with the protocol described previously. Briefly, iPS cell colonies were disassociated with accutase (Invitrogen), plated onto 6-well plates pre-coated with 2.5% Matrigel (BD Biosciences) and allowed to reach 80% confluence in mTeSR medium (Stem Cell Technology). For the first 10 days, cells were treated with SB431542 (10 µM; Tocris Bioscience) and Noggin (100 ng/ml) in Neural Media (NM) with FGF2 ([…]) and EGF ([…]). NM media contained: Neurobasal and DMEM/F12 (1:1), B-27 Supplement Minus Vitamin A (50×, Invitrogen), N2 Supplement (100X, Invitrogen), GlutaMAX (Invitrogen, 100×), 100 units/ml penicillin and 100 µg/ml streptomycin (Fisher); for the next 4 days, cells were treated with human recombinant Sonic hedgehog (SHH, 200 ng/ml) in neuronal differentiation medium. Neuronal differentiation medium contained Neurobasal and DMEM/F12 (1:3), B27, N2, GlutaMax and PS. In the following 3 days, cells were switched to BDNF (20 ng/ml), ascorbic acid (200 µM, Sigma-Alderich), SHH (200 ng/ml), and FGF8b (100 ng/ml) in neuronal differentiation medium. Thereafter, cells were treated with BDNF, ascorbic acid, GDNF (10 ng/ml), TGF-b (1 ng/ml), and cAMP ([…], Sigma-Aldrich). All growth factors were purchased from Pepro Tech (Rocky Hill, NJ, USA). After 20 days of induction, neurons were treated daily with TAT or CS2 peptides at 1µM and were fixed for immunostaining at 26 days of induction. The imaging was observed by confocal microscope (Fluoview FV3000, Olympus).
Cells were grown on coverslips, fixed with 4% paraformaldehyde for 20 min at room temperature, permeabilized with 0.1% Triton X-100 in PBS, and blocked with 2% normal goat serum. The cells were incubated with the indicated primary antibodies overnight at 4℃. After washing with PBS, the cells were incubated with Alexa Fluor 488/568 or 405/568 secondary antibody (1:500; Thermo Fisher Scientific) for 2 h at room temperature. The nuclei were counterstained with DAPI (1:10000; Sigma-Aldrich). Images of the staining were acquired using a Fluoview FV3000 confocal microscope (Olympus).
Fig. 6 CS2 treatment is protective in DA neurons derived from PD patient iPSCs. (A) Representative images of MitoTracker staining and ClpP-αSyn PLA in A53T αSyn or isogenic control (ISO) iPSCs-derived neurons (scale bar = 30 μm). (B) Representative images of ClpP-αSyn PLA in A53T αSyn or ISO iPSCs-derived neurons, which were treated with TAT or CS2 peptide (scale bar = 30 μm). […] (C) Representative blots of co-immunoprecipitation assay assessing ClpP-αSyn in A53T αSyn or ISO iPSCs-derived neurons, which were treated with TAT or CS2 peptide. […] (D) Representative images of ClpP staining in […] positive (TH^+) iPSCs-derived DA neurons treated with TAT or CS2 peptide (scale bar = 30 μm). […] (E) Representative images of pS129-αSyn (pS129) staining in TH^+ iPSCs-derived DA neurons treated with TAT or CS2 peptide (scale bar = 30 μm). […] (F) Representative images of PSD95, Synapsin1 (SYN1) and MAP2 staining in iPSCs-derived neurons treated with TAT or CS2 peptide (scale bar = 30 μm).
(C) Detergent soluble and insoluble fractions were extracted from iPSC-derived neurons and subjected for western blot analyses. Shown are the representative blots of 3 independent experiments.
(In general: Immunoblotting shows a protein as a band on a membrane.)

Where [3] appears, read: A53T-αSyn iPSC neurons, n = 6–7.

“Also recorded” adds a separate entry of the source.

As for `CC(C)[C@H](NC(=O)CNC(=O)CNC(=O)CCCCCNC(=O)[C@H](CCCNC(=N)N)NC(=O)[C@H](CCCNC(=N)N)NC(=O)[C@H](CCCNC(=N)N)NC(=O)[C@H](CCC(N)=O)NC(=O)[C@H](CCCNC(=N)N)NC(=O)[C@H](CCCNC(=N)N)NC(=O)[C@H](CCCCN)NC(=O)[C@H](CCCCN)NC(=O)[C@H](CCCNC(=N)N)NC(=O)CNC(=O)[C@@H](N)Cc1ccc(O)cc1)C(=O)N[C@H](C(=O)N[C@H](C(=O)N[C@@H](C)C(=O)O)[C@@H](C)O)C(C)C` [CS2, TAT-C6-GGVVTA], the “mitochondrial ROS, ClpP-deficient cells” value in the assay on SH-SY5Y cells (ClpPsh SH-SY5Y overexpressing αSyn, effect of reducing ROS, n = 13 areas/group) is given as “no protective effect; also recorded: not observed in ClpP-deficient cells”. For the same compound, the “mitochondrial ROS (Mito-SOX intensity)” value in the assay with SH-SY5Y cells (SH-SY5Y expressing VN/VC-αSyn (CS1: WT αSyn), Mito-SOX 5 µM, vs TAT) was “significant reduction of the fluorescence intensity of Mito-SOX”. Also, the “ATP content, PFF neurons” value in assay [1] (n = 4) is “rescued mitochondrial membrane potential and ATP content”. Also, the “mitochondrial ROS, PFF neurons” value in assay [1] (Mito-SOX, n = 90-100 neurons per group) is “reduced mitochondrial ROS”. Also, the “mitochondrial membrane potential, PFF neurons” value in assay [1] (TMRM, n = 90-100 neurons per group) is “rescued mitochondrial membrane potential”. Moreover, the “insoluble αSyn accumulation, iPSC neurons” value in assay [2] (3 independent experiments) was “reduced the expression of pS129-αSyn and the accumulation of insoluble αSyn”. The “pS129-αSyn expression, iPSC DA neurons” value in assay [2] (n = 5–7) is given as “reduced the expression of pS129-αSyn”. The “ClpP protein level in TH+ DA neurons” value in assay [2] (n = 6) is “significantly restored ClpP protein levels”. For the same compound, in assay [2] (setting [3]), the PSD95 density result was “restored the density of both PSD95 and Synapsin1”; the Synapsin1 density result was “restored the density of both PSD95 and Synapsin1”.

These data come from publication PMC12751141, “Disrupting α-Synuclein–ClpP interaction restores mitochondrial function and attenuates neuropathology in Parkinson’s disease models” (Molecular Neurodegeneration, 2025).
